The values that follow come from patent US9028845B2, “Chimeric immunomodulatory compounds and methods of using the same-IV” (Dynavax Technologies Corporation, priority 2001, dated 2015).

In one test the test system is CD19+ B cells. Kind of test: Human B cell proliferation assay (3H-thymidine incorporation). Particulars: purified human B cells, 5 μg/ml, 96 h.
For a further test, the system named is human PBMCs. Kind of test: Human PBMC cytokine response assay (IFN-γ and IFN-α in cell-free medium by ELISA), with or without cPLGA. Type of test: cell-based. The conditions noted are these: for IFN-α induction (FIG. 10), in words: PBMCs from 8 donors, 20 μg/ml, 24 h. Background: ELISA stands for enzyme-linked immunosorbent assay.
[1] abbreviates: Table 24, mean of donors 28234-28237.
Where [2] appears, read: Table 25, mean of donors 28250-28253.

Consider “(5′-TCGACGT-3′-HEG)2-glycerol-HEG-5′-TCGACGT-3′ [Compound C-101]”, for which the “B cell proliferation (FIG. 11), in words” value in the test on CD19+ B cells is “induce very little B cell proliferation”. The IFN-α in the test with human PBMCs (Example 58, 0.8 ug/ml, donor 1) is 52 pg/mL; in the test on human PBMCs (Example 58, 0.8 ug/ml, donor 2), 52 pg/mL; with human PBMCs (Example 58, 0.8 ug/ml, donor 3) it was 52 pg/mL; in the test on human PBMCs (Example 58, 0.8 ug/ml, donor 4), 52 pg/mL; in the test on human PBMCs (Example 58, 4 ug/ml, donor 1), 52 pg/mL; with human PBMCs (Example 58, 4 ug/ml, donor 2), 52 pg/mL. For the same substance, the IFN-α stood at 59 pg/mL with human PBMCs (Example 58, 4 ug/ml, donor 3); 204 pg/mL in the test with human PBMCs (Example 58, 4 ug/ml, donor 4); 2330 pg/mL in the test on human PBMCs (Example 58, 20 ug/ml, donor 1); 109 pg/mL with human PBMCs (Example 58, 20 ug/ml, donor 2); 215 pg/mL with human PBMCs (Example 58, 20 ug/ml, donor 3); 157 pg/mL in the test on human PBMCs (Example 58, 20 ug/ml, donor 4). Further, the IFN-α in the test with human PBMCs (Example 59, 0.8 ug/ml, donor 48) came to 102 pg/mL; in the test on human PBMCs (Example 59, 0.8 ug/ml, donor 177), 102 pg/mL; in the test with human PBMCs (Example 59, 0.8 ug/ml, donor 272), 185 pg/mL; in the test with human PBMCs (Example 59, 0.8 ug/ml, donor 273), 102 pg/mL; in the test with human PBMCs (Example 59, 4 ug/ml, donor 48), 818 pg/mL; in the test with human PBMCs (Example 59, 4 ug/ml, donor 177), 3631 pg/mL. In addition, the IFN-α came to 604 pg/mL in the test on human PBMCs (Example 59, 4 ug/ml, donor 272); 102 pg/mL with human PBMCs (Example 59, 4 ug/ml, donor 273); 2212 pg/mL with human PBMCs (Example 59, 20 ug/ml, donor 48); 4277 pg/mL in the test with human PBMCs (Example 59, 20 ug/ml, donor 177); 642 pg/mL with human PBMCs (Example 59, 20 ug/ml, donor 272); 102 pg/mL in the test on human PBMCs (Example 59, 20 ug/ml, donor 273). Further, the IFN-α was 16 pg/mL in the test on human PBMCs (Table 24, donor 28234); 249 pg/mL in the test on human PBMCs (Table 24, donor 28235); 1354 pg/mL in the test with human PBMCs (Table 24, donor 28236); 8566 pg/mL in the test with human PBMCs (Table 24, donor 28237). Also, the IFN-α mean with human PBMCs (Example 58, 0.8 ug/ml, mean of four individuals) worked out at 52 pg/mL; in the test on human PBMCs (Example 58, 4 ug/ml, mean of four individuals), 92 pg/mL; with human PBMCs (Example 58, 20 ug/ml, mean of four individuals) it was 703 pg/mL; in the test with human PBMCs (Example 59, 0.8 ug/ml, mean of four donors) it was 123 pg/mL; in the test with human PBMCs (Example 59, 4 ug/ml, mean of four donors), 1289 pg/mL; in the test on human PBMCs (Example 59, 20 ug/ml, mean of four donors) it was 1808 pg/mL. In the test with human PBMCs (setting [1]), this substance yielded an IFN-α mean of 2546 pg/mL. The “IFN-α induction (FIG. 10), in words” value with human PBMCs is given as “induce high levels of IFN-α”. In addition, the IFN-γ in the test on human PBMCs (Table 24, donor 28234) was 14 pg/mL; with human PBMCs (Table 24, donor 28235), 205 pg/mL; in the test on human PBMCs (Table 24, donor 28236), 627 pg/mL; in the test with human PBMCs (Table 24, donor 28237) it was 2612 pg/mL. The same substance gave an IFN-γ mean in the test with human PBMCs (setting [1]) of 865 pg/mL. Further, the IFN-a in the test with human PBMCs (Table 25, donor 28250) stood at 540 pg/mL; with human PBMCs (Table 25, donor 28251) it was 1472 pg/mL; with human PBMCs (Table 25, donor 28252) it was 509 pg/mL; in the test with human PBMCs (Table 25, donor 28253) it was 2645 pg/mL. In addition, the IFN-g was found to be 224 pg/mL with human PBMCs (Table 25, donor 28250, polynucleotides/spacers at amounts equivalent to the CIC, spacers alone 9 uM); 63 pg/mL with human PBMCs (Table 25, donor 28251); 180 pg/mL in the test with human PBMCs (Table 25, donor 28252); 146 pg/mL in the test with human PBMCs (Table 25, donor 28253). The IFN-a mean in the test on human PBMCs (setting [2]) came to 1291 pg/mL. Besides, the IFN-g mean in the test with human PBMCs (setting [2]) amounted to 153 pg/mL.

Regarding “(5′-TCGACGT-3′-HEG)3-trebler-HEG-5′-TCGACGT-3′ [Compound C-125]”, the “B cell proliferation (FIG. 11), in words” value with CD19+ B cells is on record as “induce very little B cell proliferation”. The “IFN-α induction (FIG. 10), in words” value in the test on human PBMCs is “induce high levels of IFN-α”.

As to “(5′-TCGATCG-3′-HEG)2-glycerol-HEG-5′-TCGATCG-3′ [Compound C-145]”, the “B cell proliferation (FIG. 11), in words” value in the test with CD19+ B cells is “induce very little B cell proliferation”. The “IFN-α induction (FIG. 10), in words” value in the test with human PBMCs is listed as “induce high levels of IFN-α”.

“(5′-TCGTCGA-3′-C3)2-glycerol-C3-5′-TCGTCGA-3′ [Compound C-104]”: the “B cell proliferation (FIG. 11), in words” value in the test with CD19+ B cells is “stimulates B cells to proliferate”. Further, the “IFN-α induction (FIG. 10), in words” value in the test with human PBMCs is recorded as “induces no measurable IFN-α”. In addition, the IFN-α in the test with human PBMCs (Table 24, donor 28234) worked out at 16 pg/mL; with human PBMCs (Table 24, donor 28235), 29 pg/mL; in the test on human PBMCs (Table 24, donor 28236), 16 pg/mL; in the test with human PBMCs (Table 24, donor 28237), 16 pg/mL. Moreover, the IFN-γ in the test with human PBMCs (Table 24, donor 28234) was 14 pg/mL; with human PBMCs (Table 24, donor 28235), 4 pg/mL; in the test on human PBMCs (Table 24, donor 28236), 87 pg/mL; with human PBMCs (Table 24, donor 28237) it was 125 pg/mL. The IFN-α mean with human PBMCs (setting [1]) stood at 19 pg/mL. The IFN-γ mean with human PBMCs (setting [1]) was 58 pg/mL. Also, in the test on human PBMCs (used alone), the “IFN-α induction, in words” value is given as “HEG (C-94)>TEG (C-103)>C3 (C-104)=no linker (C-28)”.
